Converted amounts (≈) assume the structure as drawn. Where a name gives a salt, the structure may show the parent alone. Read-outs that look alike come from different tables or passages of the source.
Experiments:
Assay type in all cases: cell-based
[1] = test system: S. aureus ATCC 29213; assay: In vitro antibacterial evaluation, MIC by agar dilution, S. aureus ATCC 29213; conditions: Staphylococcus aureus, ATCC29213
Experimental: (§1) The compounds of the invention were evaluated against several β-lactamresistant bacteria strains by determining the minimum inhibitory concentration (MIC, μg/ml) of each compound with respect to each strain. The MIC, the lowest concentration of antibiotic which inhibits growth of the test organism, was determined by the agar dilution method.
(§2) To determine the MIC for bacterial isolates, the test compound was incorporated in a series of two-fold dilutions into liquified Mueller-Hinton agar. Upon solidification, a number of different bacterial strains were spot inoculated with a replicating device onto the agar surface. […] The procedures used in these studies have been standardized by the National Committee for Clinical Laboratory Standards (NCCLS), as per the NCCLS publication entitled METHODS FOR DILUTION ANTIMICROBIAL SUSCEPTIBILITY TESTS (1991), which is incorporated herein by reference.
(§3) Aliquots of antimicrobial agents were prepared in phosphate buffered saline (PBS) at pH 7.2. Tween 20 or DMSO was used as a solubilizing vehicle as needed. Standard methods of vortexing, sonicating and gentle heat were used to facilitate solubilizing the test agent. Typically, the concentration of the stock solution was 10× that of the highest drug concentration tested. A 1.28 mg/mL stock solution was used with a subsequent highest working concentration of 128 μg/mL. Serial two-fold dilutions were done through ≤0.25 μg/mL. Each drug level was tested in duplicate. Two-fold drug dilutions were done in sterile 50 mL tubes with a final drug volume of 5 mL. Upon the addition of 45 mL of molten agar, a 10-fold dilution resulted. Two, 25 mL. plates were then poured into 15×150 mm square Petri plates with grids and allowed to harden.
(§4) A control plate with a reference drug, either cefotaxime, vancomycin or imipenem, was used as the positive growth control. Stock concentrations of reference antibiotics were prepared and frozen at -80° C. Upon preparation, the control plates were sealed and stored in the refrigerator for up to 1 week prior to use; however, imipenem control plates had to be prepared just prior to use. All test plates were used within 24 hours of preparation.
(§5) Satisfactory results were obtained where the inoculum contained about 10^4 colony forming units (cfu) ±0.5 logs. Starting with pure cultures of the test isolates on agar plates, a few isolated colonies were transferred to a tube of nutrient broth and allowed to grow 4-6 hours at 35°-36° C. to reach log-phase growth. Dropwise addition of the broth culture to PBS was done to match a 0.5 McFarland turbidity standard equal to 10^8 cfu/mL. This was further diluted ten-fold in PBS to reach a working inoculum concentration of 10^7 cfu/mL. When 1 μL of the working inoculum was applied to the agar surface a concentration of about 10^4 cfu per spot was obtained.
(§6) Disposable sterile 1 μL loops were used to inoculate test plates, with each isolate in a designated grid on the agar plate. An alternate method of inoculation involved the use of a replica plater, a device with 48 steel pins allowing the simultaneous inoculation of multiple isolates. After the spots had dried, the plates were incubated at 35°-36° C. for 16-20 hours. Endpoints were assessed as the minimum inhibitory concentration (MIC) of antimicrobial agent.

[2] = test system: S. aureus 76 (Meth^R)(lac^+); assay: In vitro antibacterial evaluation, MIC by agar dilution, S. aureus 76; conditions: Staphylococcus aureus, read-out: MIC
Experimental: as §1, §2, §3, §4, §5, §6

[3] = test system: S. aureus Col8A (Meth^S)(lac^-); assay: In vitro antibacterial evaluation, MIC by agar dilution, S. aureus Col8A; conditions: Staphylococcus aureus
Experimental: as §1, §2, §3, §4, §5, §6
The novel agents of this invention are notable for their enhanced activity against S. aureus Col and Enterococci (E. faecium and E. faecalis). The S. aureus Col strain is a high-level PBP2a producer, whereas S. aureus Col 8A, its isogenic partner, lacks PBP2a. […] Thus, the compounds of the present invention are effective against PBP2a-producing bacteria.

[4] = test system: S. haemolyticus (Meth^R); assay: In vitro antibacterial evaluation, MIC by agar dilution, S. haemolyticus; conditions: Staphylococcus haemolyticus, read-out: MIC
Experimental: as §1, §2, §3, §4, §5, §6

[5] = test system: E. faecium ATCC 35667; assay: In vitro antibacterial evaluation, MIC by agar dilution, E. faecium ATCC 35667; conditions: Enterococcus faecium, ATCC35667, read-out: MIC
Experimental: as §1, §2, §3, §4, §5, §6

[6] = test system: E. faecalis ATCC 29212; assay: In vitro antibacterial evaluation, MIC by agar dilution, E. faecalis ATCC 29212; conditions: Enterococcus faecalis, ATCC29212; E. faecalis ATCC 29212; read-out: MIC
Experimental: as §1, §2, §3, §4, §5, §6

[7] = test system: E. coli ATCC 25922; assay: In vitro antibacterial evaluation, MIC by agar dilution, E. coli ATCC 25922; conditions: Escherichia coli, ATCC25922, read-out: MIC
Experimental: as §1, §2, §3, §4, §5, §6

[8] = test system: P. aeruginosa ATCC 27853; assay: In vitro antibacterial evaluation, MIC by agar dilution, P. aeruginosa ATCC 27853; conditions: Pseudomonas aeruginosa, ATCC27853, read-out: MIC
Experimental: as §1, §2, §3, §4, §5, §6

[9] = S. aureus ATCC 29213, read-out: MIC

SMILES	MIC [1, 9] [mg/L]	MIC [2] [mg/L]	MIC [3] [mg/L]	MIC [4] [mg/L]	MIC [5] [mg/L]	MIC [6] [mg/L]	MIC [7] [mg/L]	MIC [8] [mg/L]	MIC [1] [mg/L]
N#Cc1ccccc1SC1=C(C(=O)O)N2C(=O)[C@@H](NC(=O)/C(=N\OC3CCCC3)c3csc(N)n3)[C@H]2SC1 [Cmpd 53, (7R)-7-[(Z)-2-(aminothiazol-4-yl)-2-(cyclopentyloxyimino)acetamido]-3-(2-cyanophenylthio)-3-cephem-4-carboxylic acid]	1 (≈ 1.75 µM)	8 (≈ 14 µM)	1 (≈ 1.75 µM)	8 (≈ 14 µM)	8 (≈ 14 µM)	8 (≈ 14 µM)	1 (≈ 1.75 µM)	8 (≈ 14 µM)	
CC(=O)NC(=N)SCc1ccccc1SC1=C(C(=O)O)N2C(=O)[C@@H](NC(=O)Cc3ccccc3)[C@H]2SC1 [Cmpd 78, (7R)-7-[(Phenylacetyl)amino]-3-(2-N-acetylamidinothiomethylphenylthio)-3-cephem-4-carboxylic acid]		16 (≈ 28.7 µM)	0.25 (≈ 0.449 µM)	> 32	4 (≈ 7.19 µM)	4 (≈ 7.19 µM)	> 32	> 32	0.25 (≈ 0.449 µM)
N=C(NC1CC1)SCc1ccccc1SC1=C(C(=O)O)N2C(=O)[C@@H](NC(=O)Cc3ccccc3)[C@H]2SC1 [Cmpd 79, (7R)-7-[(Phenylacetyl)amino]-3-(2-N-cyclopropylisothiouroniummethylphenylthio)-3-cephem-4-carboxylate, inner salt]	0.06	8	0.06	32	2	1	> 32	> 32	
N=C(N)SCc1cccc(SC2=C(C(=O)O)N3C(=O)[C@@H](NC(=O)Cc4ccccc4)[C@H]3SC2)c1 [Cmpd 80, (7R)-7-[(Phenylacetyl)amino]-3-(3-isothiouroniummethylphenylthio)-3-cephem-4-carboxylate, inner salt]	< 0.06	8	< 0.06	8	2	1	16	> 32	
Nc1nc(/C(=N/OCCF)C(=O)N[C@@H]2C(=O)N3C(C(=O)O)=C(Sc4ccnn4-c4ccccc4)CS[C@H]23)c(Cl)s1 [Cmpd 98, (7R)-7-[(Z)-2-(2-amino-5-chlorothiazol-4-yl)-2-(2-fluoroethyloxyimino)acetamido]-3-(1-N-phenylpyrazol-5-ylthio)-3-cephem-4-carboxylic acid]	0.5 (≈ 0.801 µM)	8 (≈ 12.8 µM)		8 (≈ 12.8 µM)	4 (≈ 6.41 µM)	1 (≈ 1.6 µM)	8 (≈ 12.8 µM)	16 (≈ 25.6 µM)	
N=C(N)SCc1ccccc1SC1=C(C(=O)O)N2C(=O)[C@@H](NC(=O)Cc3ccc(O)cc3)[C@H]2SC1 [Cmpd 99, (7R)-7-[((4-Hydroxyphenyl)acetyl)amino]-3-(2-isothiouroniummethylphenylthio)-3-cephem-4-carboxylic acid, inner salt]	0.125	16		16	1	1	> 32	> 32	
N=C(N)SCCc1ccccc1SC1=C(C(=O)O)N2C(=O)[C@@H](NC(=O)Cc3ccccc3)[C@H]2SC1 [Cmpd 100, (7R)-7-[(Phenylacetyl)amino]-3-(2-(2-isothiouronium)ethylphenylthio)-3-cephem-4-carboxylate, inner salt]	< 0.06	8		16	4	1	> 32	> 32	
O=C(COc1ccccc1)N[C@@H]1C(=O)N2C(C(=O)O)=C(Sc3ccnn3-c3ccccc3)CS[C@H]12 [Cmpd 112, (7R)-7-[(phenyloxyacetyl)amino]-3-(1-N-phenylpyrazol-5-ylthio) -3-cephem-4-carboxylic acid]		16 (≈ 31.5 µM)		32 (≈ 62.9 µM)	4 (≈ 7.87 µM)	4 (≈ 7.87 µM)	> 32	> 32	
CSCC(=O)N[C@@H]1C(=O)N2C(C(=O)O)=C(Sc3ccccc3CSC(=N)NC(=N)N)CS[C@H]12 [Cmpd 126, (7R)-7-[(methylthioacetyl)amino]-3-(2-(N-amidino)isothiouroniummethylphenylthio)-3-cephem-4-carboxylate, inner salt]		16	0.125		2	1	> 32	> 32	0.125
N=C(N)NCc1ccccc1SC1=C(C(=O)O)N2C(=O)[C@@H](NC(=O)Cc3ccccc3)[C@H]2SC1 [Cmpd 128, (7R)-7-[(Phenylacetyl)amino]-3-(2-guanidiniummethylphenylthio)-3-cephem-4-carboxylate, inner salt]	≤ 0.06	16	≤ 0.06		2	2	> 32	> 32	
N=C(N)SCc1ccccc1SC1=C(C(=O)O)N2C(=O)[C@@H](NC(=O)/C(=N\O)c3csc(N)n3)[C@H]2SC1 [Cmpd 129, (7R)-7-[(Z)-2-(Aminothiazol-4-yl)-2-(hydroxyimino)acetamido]-3-(2-isothiouroniummethylphenylthio)-3-cephem-4-carboxylate, inner salt]	≤ 0.06	8	≤ 0.06	16		0.25	2	> 32	
N=C(N)SCc1ccccc1SC1=C(C(=O)O)N2C(=O)[C@@H](NC(=O)/C(=N\O)c3ccccc3)[C@H]2SC1 [Cmpd 136, (7R)-7-[(Z)-2-(Phenyl)-2-(hydroxyimino)acetamido]-3-(2-isothiouroniummethylphenylthio)-3-cephem-4-carboxylate, inner salt]	0.125	4		4	1	0.5	> 32	> 32	
